Read-outs that look alike come from different tables or passages of the source.
What was measured:
[1] = Human pharmacokinetics; conditions: in vivo
Protocol: The pharmacokinetic parameters described herein include area under the plasma concentration-time curve (AUC0-t and AUC0-∞), maximum plasma concentration (Cmax), time of maximum plasma concentration (Tmax) and terminal elimination half-life (T1/2). The time of maximum concentration, Tmax, is determined as the time corresponding to Cmax. Area under the plasma concentration-time curve up to the time corresponding to the last measurable concentration (AUC0-t) is calculated by numerical integration using the linear trapezoidal rule as follows: […]

[2] = Urinary excretion after oral 14C-milnacipran hydrochloride; format: in vivo, human
Source text: Milnacipran and its metabolites are eliminated primarily by renal excretion. […] The l-milnacipran carbamoyl-O-glucuronide was the major metabolite excreted in urine and accounted for approximately 17% of the dose; approximately 2% of the dose was excreted in urine as d-milnacipran carbamoyl-O-glucuronide.

[3] = tested on: β-adrenergic receptors; test: Receptor affinity in vitro; format: binding
[4] = tested on: Na^+ channels; test: Ion channel affinity; format: binding
[5] = tested on: rats; test: Oral administration to rats during late gestation; format: in vivo
Protocol: The no-effect dose for maternal and offspring toxicity was 2.5 mg/kg/day (approximately 0.1 times the MRHD on a mg/m^2 basis).

[6] = tested on: L5178Y TK+/− mouse lymphoma; format: cell-based
[7] = tested on: γ-aminobutyric acid (GABA) receptors; test: Receptor affinity in vitro; format: binding
[8] = tested on: Ca^++ channels; test: Ion channel affinity; format: binding
[9] = biological target: human monoamine oxidase MAO-A (Homo sapiens, UniProt P21397); test: Enzyme inhibition; format: biochemical
[10] = tested on: rats; conditions: rat, in vivo, 50 mg/kg/day
[11] = tested on: fibromyalgia patients; test: Placebo-controlled trials in fibromyalgia patients (safety); format: in vivo, human; conditions: human, in vivo
Source text: The stated frequencies of adverse reactions represent the proportion of individuals who experienced, at least once, a treatment-emergent adverse reaction of the type listed. A reaction was considered treatment emergent if it occurred for the first time or worsened while receiving therapy following baseline evaluation.

[12] = tested on: serotonergic (5-HT1-7) receptors; test: Receptor affinity in vitro; format: binding
[13] = tested on: rats; test: Reproductive toxicity in rats (dead fetuses in utero); format: in vivo, rat; conditions: 5 mg/kg/day (0.25 times the MRHD on a mg/m^2 basis)
[14] = biological target: neuronal serotonin reuptake (Homo sapiens, UniProt P31645); test: Serotonin uptake inhibition in vitro; format: biochemical; conditions: preclinical studies
[15] = tested on: K^+ channels; test: Ion channel affinity; format: binding
[16] = human, in vivo
Source text: Dosage adjustment based on gender is not necessary.

[17] = tested on: rat; conditions: in vivo
[18] = biological target: T1, uptake of dopamine (Homo sapiens, UniProt Q01959); conditions: cited from earlier work
[19] = tested on: human lymphocytes; format: cell-based
[20] = tested on: bacterial reverse mutation; test: In vitro bacterial reverse mutation assay (Ames test); format: cell-based
[21] = tested on: mouse; conditions: in vivo
[22] = tested on: α-adrenergic receptors; test: Receptor affinity in vitro; format: binding
[23] = in vivo
Source text: Milnacipran is not a controlled substance.
These withdrawal symptoms can be severe. Thus, in certain embodiments, milnacipran hydrochloride should be tapered and not abruptly discontinued after extended use.

[24] = tested on: patients; test: Spontaneous / postmarketing reports; format: in vivo, human; conditions: in vivo
Source text: However, because these adverse reactions were reported voluntarily from a population of uncertain size, it is not always possible to reliably estimate their frequency or establish a causal relationship to drug exposure.

[25] = tested on: Cl^− channels; test: Ion channel affinity; format: binding
[26] = tested on: histamine (H1-4) receptors; test: Receptor affinity in vitro; format: binding
[27] = tested on: opiate receptors; test: Receptor affinity in vitro; format: binding
[28] = biological target: acetylcholinesterase (Homo sapiens, UniProt P22303); test: Enzyme inhibition; format: biochemical
[29] = Drug interaction studies in healthy adult subjects; format: in vivo, human; conditions: human, in vivo
Protocol: The drug interaction studies described below were conducted in healthy adult subjects.

[30] = biological target: T1, uptake of dopamine; test: Dopamine uptake; format: biochemical; conditions: preclinical studies
[31] = tested on: benzodiazepine receptors; test: Receptor affinity in vitro; format: binding
[32] = biological target: human monoamine oxidase MAO-B (Homo sapiens, UniProt P27338); test: Enzyme inhibition; format: biochemical
[33] = tested on: mice; test: Embryotoxicity/teratogenicity in mice, period of organogenesis; format: in vivo, mouse; conditions: up to 125 mg/kg/day (3 times the MRHD)
[34] = parameters: species or system human; conditions: in vivo, po
Source text: AUC0-∞ and T½ were similar in healthy subjects and subjects with mild and moderate hepatic impairment. […] Caution should be exercised in patients with severe hepatic impairment.

[35] = tested on: rabbits; test: Embryotoxicity/teratogenicity in rabbits, period of organogenesis; format: in vivo, rabbit; conditions: up to 60 mg/kg/day (6 times the MRHD)
[36] = tested on: dopamine (D1-5) receptors; test: Receptor affinity in vitro; format: binding
[37] = tested on: rats; conditions: rat, in vivo, 15 mg/kg
Source text: (§1) The clinical significance of the finding is not known.

[38] = tested on: primate; conditions: in vivo
Source text: as §1

[39] = tested on: muscarinic (M1-5) receptors; test: Receptor affinity in vitro; format: binding
[40] = oral 14C-milnacipran hydrochloride

T1 sequence (Q01959 whole entry): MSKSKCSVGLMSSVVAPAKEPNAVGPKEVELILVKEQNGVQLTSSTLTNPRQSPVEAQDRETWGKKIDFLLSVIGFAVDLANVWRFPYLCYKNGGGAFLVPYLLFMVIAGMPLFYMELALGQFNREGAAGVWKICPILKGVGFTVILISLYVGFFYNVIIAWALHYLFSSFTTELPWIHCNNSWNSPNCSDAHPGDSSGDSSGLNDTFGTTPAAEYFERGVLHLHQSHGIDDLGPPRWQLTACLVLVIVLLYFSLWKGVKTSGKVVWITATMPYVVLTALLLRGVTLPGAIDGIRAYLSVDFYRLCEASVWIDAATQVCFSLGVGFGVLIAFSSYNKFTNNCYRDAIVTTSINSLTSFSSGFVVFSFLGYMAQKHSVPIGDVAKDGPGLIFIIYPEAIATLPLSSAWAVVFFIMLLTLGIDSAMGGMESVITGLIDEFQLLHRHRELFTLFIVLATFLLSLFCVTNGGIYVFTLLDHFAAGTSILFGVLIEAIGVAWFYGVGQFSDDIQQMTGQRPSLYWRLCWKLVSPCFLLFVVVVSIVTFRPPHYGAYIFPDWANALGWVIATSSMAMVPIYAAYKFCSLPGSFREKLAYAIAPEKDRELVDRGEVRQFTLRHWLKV
Chain of neuronal serotonin reuptake (P31645 whole entry): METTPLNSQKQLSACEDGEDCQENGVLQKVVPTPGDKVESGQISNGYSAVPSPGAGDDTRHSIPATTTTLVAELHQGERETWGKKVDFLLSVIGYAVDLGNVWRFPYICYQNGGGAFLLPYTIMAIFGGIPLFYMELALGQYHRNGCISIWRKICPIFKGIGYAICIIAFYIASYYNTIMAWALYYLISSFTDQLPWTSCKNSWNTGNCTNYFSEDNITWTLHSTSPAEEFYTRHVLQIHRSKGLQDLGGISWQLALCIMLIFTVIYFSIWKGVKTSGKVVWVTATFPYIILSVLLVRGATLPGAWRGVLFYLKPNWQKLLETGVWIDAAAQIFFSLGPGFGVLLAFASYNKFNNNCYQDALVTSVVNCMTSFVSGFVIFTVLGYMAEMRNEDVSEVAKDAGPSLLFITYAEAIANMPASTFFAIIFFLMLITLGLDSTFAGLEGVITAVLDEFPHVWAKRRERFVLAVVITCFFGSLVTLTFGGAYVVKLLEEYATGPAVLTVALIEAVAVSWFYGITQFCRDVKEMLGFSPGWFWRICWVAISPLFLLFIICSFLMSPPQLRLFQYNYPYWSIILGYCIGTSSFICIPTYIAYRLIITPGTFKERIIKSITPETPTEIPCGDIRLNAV
Chain of acetylcholinesterase (P22303 32-614, species assumed): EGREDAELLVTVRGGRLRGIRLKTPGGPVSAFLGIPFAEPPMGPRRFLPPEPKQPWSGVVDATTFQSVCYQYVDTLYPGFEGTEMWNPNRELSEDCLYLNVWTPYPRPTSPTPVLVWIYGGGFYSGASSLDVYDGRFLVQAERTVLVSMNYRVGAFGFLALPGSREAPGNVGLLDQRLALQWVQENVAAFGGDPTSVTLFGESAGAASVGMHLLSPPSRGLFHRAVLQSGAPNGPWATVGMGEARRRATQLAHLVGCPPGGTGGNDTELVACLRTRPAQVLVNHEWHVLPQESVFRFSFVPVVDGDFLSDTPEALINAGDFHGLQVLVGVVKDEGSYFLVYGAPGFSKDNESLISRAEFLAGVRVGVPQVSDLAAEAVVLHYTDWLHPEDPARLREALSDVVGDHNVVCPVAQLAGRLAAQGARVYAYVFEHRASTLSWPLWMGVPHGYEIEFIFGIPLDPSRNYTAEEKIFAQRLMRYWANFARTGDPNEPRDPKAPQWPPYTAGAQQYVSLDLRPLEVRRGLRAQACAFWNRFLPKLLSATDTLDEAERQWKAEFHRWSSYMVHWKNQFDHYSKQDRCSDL
Chain of human monoamine oxidase MAO-B (P27338 whole entry): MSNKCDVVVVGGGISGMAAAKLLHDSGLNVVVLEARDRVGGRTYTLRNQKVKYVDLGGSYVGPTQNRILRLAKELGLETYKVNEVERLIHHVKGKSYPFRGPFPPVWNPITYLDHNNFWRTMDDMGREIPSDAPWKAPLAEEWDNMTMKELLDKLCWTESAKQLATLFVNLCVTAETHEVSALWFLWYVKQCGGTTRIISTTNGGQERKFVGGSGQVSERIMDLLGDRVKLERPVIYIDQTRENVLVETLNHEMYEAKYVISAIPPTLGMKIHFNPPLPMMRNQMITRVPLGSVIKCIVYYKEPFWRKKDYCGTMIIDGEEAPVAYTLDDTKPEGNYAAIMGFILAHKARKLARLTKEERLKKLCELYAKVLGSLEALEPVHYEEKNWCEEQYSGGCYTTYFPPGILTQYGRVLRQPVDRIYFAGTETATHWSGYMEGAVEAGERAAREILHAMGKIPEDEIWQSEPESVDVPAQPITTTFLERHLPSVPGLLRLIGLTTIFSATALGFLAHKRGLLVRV
Chain of human monoamine oxidase MAO-A (P21397 whole entry): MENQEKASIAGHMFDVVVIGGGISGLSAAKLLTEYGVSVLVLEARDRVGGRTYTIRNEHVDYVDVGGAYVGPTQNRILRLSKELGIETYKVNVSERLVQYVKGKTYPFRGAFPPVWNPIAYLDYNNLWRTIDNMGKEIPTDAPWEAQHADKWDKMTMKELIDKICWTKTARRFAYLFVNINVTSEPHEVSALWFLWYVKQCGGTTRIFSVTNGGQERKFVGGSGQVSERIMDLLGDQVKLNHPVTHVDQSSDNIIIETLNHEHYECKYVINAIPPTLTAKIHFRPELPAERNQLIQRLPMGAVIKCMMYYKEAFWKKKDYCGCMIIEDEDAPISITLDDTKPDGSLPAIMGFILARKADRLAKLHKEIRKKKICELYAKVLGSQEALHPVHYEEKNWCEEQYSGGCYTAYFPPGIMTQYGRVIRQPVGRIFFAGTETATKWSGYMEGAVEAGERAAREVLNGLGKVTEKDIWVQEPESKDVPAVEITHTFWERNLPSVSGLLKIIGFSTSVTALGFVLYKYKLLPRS

With CCN(CC)C(=O)[C@]1(c2ccccc2)C[C@@H]1CN.Cl [(1R,2S) enantiomer, (1R,2S)-2-aminomethyl-1-phenyl-N,N-diethylcyclopropanecarboxamide hydrochloride] the half-life ([1]; human) was 240 to 360 min.

With CCN(CC)C(=O)[C@@]1(c2ccccc2)C[C@H]1CN.Cl [(1S,2R) enantiomer, (1S,2R)-2-aminomethyl-1-phenyl-N,N-diethylcyclopropanecarboxamide hydrochloride] the half-life ([1]; human) was 480 to 600 min.

With CCNC(=O)[C@]1(c2ccccc2)C[C@@H]1CN [N-desethyl milnacipran] the “dose excreted in urine as this species” value [2, 40] was “Approximately 8%”.

With CCN(CC)C(=O)[C@]1(c2ccccc2)C[C@@H]1CNC(=O)O[C@@H]1O[C@H](C(=O)O)[C@@H](O)[C@H](O)[C@H]1O [d-milnacipran carbamoyl-O-glucuronide] the “dose excreted in urine as this species” value [2, 40] was “approximately 2%”.

In the case of CCN(CC)C(=O)[C@]1(c2ccccc2)C[C@@H]1CN [d-milnacipran], the “dose excreted in urine as this species” value [2, 40] is reported as 31%.

For CCN(CC)C(=O)[C@@]1(c2ccccc2)C[C@H]1CNC(=O)O[C@@H]1O[C@H](C(=O)O)[C@@H](O)[C@H](O)[C@H]1O [l-milnacipran carbamoyl-O-glucuronide], the “dose excreted in urine as this species” value [2, 40] was “approximately 17%”.

In the case of CCN(CC)C(=O)[C@@]1(c2ccccc2)C[C@H]1CN [l-milnacipran], the “dose excreted in urine as this species” value [2, 40] is reported as 24%.

In the case of CCN(CC)C(=O)C1(c2ccccc2)CC1CN (stereo not shown) [milnacipran], the affinity [3] is reported as “no significant affinity”, the affinity [4] is reported as “no significant affinity” and the “pup body weight and viability on postpartum day 4” value ([5]; rat, in vivo, po, 5 mg/kg/day) is reported as “decrease in pup body weight and viability”. The “no-effect dose for maternal and offspring toxicity” value ([5]; rats (approximately 0.1 times the MRHD)) was 2.5 mg/kg/day, the mutagenicity [6] was “not mutagenic” and the affinity [7] was “no significant affinity”. The affinity [8] was “no significant affinity”, the inhibition of activity [9] was “does not inhibit” and the tumor incidence [10] was “statistically significant increase in the incidence of thyroid C-cell adenomas and combined adenomas and carcinomas in males”. The “withdrawal due to constipation” value [11] was 1%, the “withdrawal due to dizziness” value [11] was 1% and the “withdrawal due to headache” value [11] was 2%. The “withdrawal due to heart rate increased” value [11] was 1%, the “withdrawal due to hyperhidrosis” value [11] was 1% and the “withdrawal due to nausea” value [11] was 6%. For the same compound, the “withdrawal due to palpitations” value [11] was 3%, the “withdrawal due to vomiting” value [11] was 1% and the “withdrawal symptoms following discontinuation” value [11] was “Withdrawal symptoms have been observed”. The affinity [12] was “no significant affinity”, the “incidence of dead fetuses in utero” value [13] was “increased the incidence of dead fetuses in utero” and the “inhibition of neuronal serotonin reuptake” value [14] was “potent inhibitor”. The affinity [15] was “no significant affinity”, the “higher AUC” value ([16]; both) was “about 20%” and the “higher Cmax” value ([16]; both) was “about 20%”. For the same compound, the “higher AUC” value [16] was “about 30%”, the “higher Cmax” value [16] was “about 30%” and the “keratitis of the eye” value [17] was “did not show this response”. The “effect on uptake of dopamine” value [18] was “does not affect”, the clastogenicity [19] was “not clastogenic” and the mutagenicity [20] was “not mutagenic”. For the same compound, the clastogenicity [21] was “not clastogenic”, the affinity [22] was “no significant affinity” and the “behavioral signs indicative of abuse potential” value [23] was “did not produce behavioral signs indicative of abuse potential”. For the same compound, the physical dependence [23] was “produces physical dependence”, the liver findings [24] was “cases of increased liver enzymes and reports of severe liver injury, including fulminant hepatitis” and the affinity [25] was “no significant affinity”. The affinity [26] was “no significant affinity”, the affinity [27] was “no significant affinity” and the inhibition of activity [28] was “does not inhibit”. For the same compound, the “adverse events after switching from clomipramine” value [29] was “an increase in adverse events (e.g., euphoria and postural hypotension)”, the “effect on uptake of dopamine or other neurotransmitters” value [30] was “without directly affecting” and the affinity [31] was “no significant affinity”. The “dose excreted in urine as this species” value ([2]; human, in vivo, po) was “approximately 55%”, the inhibition of activity [32] was “does not inhibit” and the embryotoxicity or teratogenicity [33] was “did not result in embryotoxicity or teratogenicity”. For the same compound, the “dose excreted unchanged in urine” value ([1]; human) was 55%, the half-life ([1]; human) was 360 to 480 min and the “time to steady-state levels” value ([1]; human) was 36 to 48 h. For the same compound, the Vd ([1]; human, iv) was about 400 L, the bioavailability ([1]; human, po) was 85 to 90% and the exposure vs dose [1] was “increased proportionally”. The “higher AUC0-∞ than healthy subjects” value ([34]; human, 50 mg) was 31%, the “higher T½ than healthy subjects” value ([34]; human, 50 mg) was 55% and the “T½ vs healthy subjects” value [34] was “similar”. The embryotoxicity or teratogenicity [35] was “did not result in embryotoxicity or teratogenicity”, the affinity [36] was “no significant affinity” and the hepatic findings [37] was “increased incidences of centrilobular vacuolation of the liver in male rats and eosinophilic foci in male and female rats”. The “keratitis of the eye” value [37] was “increased incidence of keratitis of the eye”, the “keratitis of the eye” value [38] was “did not show this response” and the affinity [39] was “no significant affinity”.
